Data: patent publication US10393755B2, “Compositions and methods for treating eye infections and disease” (UNIVERSITY OF VIRGINIA PATENT FOUNDATION, priority 2014, dated 2019)
Numbering of substitutions follows the chain as printed. Names may count otherwise. No end group written: not given here.

Columns and labels:
[1] = type: in vitro ADME, human
Description: A limitation of most synthetic peptide drugs is their protease sensitivity. […] Retropepsin would inactivate LACRIPEP, while cathepsin K would have no effect. However neither protease is found in normal human tears. Nonetheless, tears are rich in other proteases. We therefore incubated LACRIPEP in normal human tears at 37° C. for 2, 4, 6 and 16 hr. For immunoblotting, we first removed all endogenous lacritin by immunodepletion. […] (FIG. 6B).

HCE-T cells [2] = experiment: Lacritin accelerated autophagy and FOXO3 phosphorylation, inhibitors; type: cell-based, human
Description: Lacritin targeting of corneal sensory neurons. Adrenergic α2C selective antagonist MK912 inhibits lacritin accelerated autophagy in HCE-T cells, as does the syndecan-1 inhibitor xyloside. […] Activity profiles of corneal neurons before, during and 1 hr during/after 10 μM lacritin reveal a small inhibition (from ˜12 to ˜8 spikes/s) follows immediately after the application of lacritin presumably due to α2 adrenergic receptor activation which inhibits TRPM8 channels. Removal of this inhibition after 1 hr of lacritin and washout causes an enhanced excitation of dry (from ˜20 to ˜23 spikes/s) and wet response (from ˜12 to ˜16 spikes/s).

HCE-T cells [3] = experiment: Viability (MTT) / cytoprotection of IFNG/TNF stressed cells; type: cell-based, human; conditions: for Cytoprotective activity of lacritin truncation and point mutants: 10 nM, IFNG/TNF stressed cells
Description: Viability was monitored using the 3-(4,5-dimethyl[…])-2,5-diphenyltetrazolium bromide) (MTT) reduction assay (Invitrogen) or a Nucleocounter (New Brunswick Scientific, Edison, N.J.). Cells were seeded overnight in 24-well plates at a density of 500 cells/mm2 to give rise to ˜80% confluence the next day. Then cells were sensitized overnight in IFNG (100 units/ml) in α-MEM and treated in triplicate for 15 min with 10 nm lacritin or lacritin deletion or point mutants or with different lacritin doses in α-MEM together with TNF as described above.
Inclusion of inhibitors was simultaneous with the addition of lacritin or C-25 in all viability and other experiments except where otherwise noted. Inhibitors included PI103 (0.5 μm; EMD, Darmstadt, Germany), rapamycin (10 and 100 nm; EMD), and cyclosporin A (0.1 μm; EMD). One exception was 4-methylumbelliferyl-β-d-xylopyranoside (“xyloside”; 70 and 80 nm; Sigma), which was added during IFNG sensitization and during treatment with TNF and lacritin. The assay was completed by addition of MTT (5 mg/ml) to each well (at 37° C. for 4 h) followed by isopropanol with 0.04 n HCl and measurement at 570 nm using a reference wavelength of 630 nm. Viability was assayed in a Nucleocounter (New Brunswick Scientific).

bacteria = experiment: Lacritin inhibition (colony count) assay, bacterium not given; type: cell-based; conditions: synthetic peptides
Description: (§1) Bacterial Growth, SYTOX Green Assays, and on Column Cleavage—E. coli (ATCC (Manassas Va.) catalog no. 10536), S. epidermidis (ATCC catalog no. 12228), and P. aeruginosa (ATCC catalog no. 9027) were grown to mid-log phase in 50 ml of Luria-Bertani (LB) medium and washed three times in phosphate buffer containing 10 mM NaCl (pH 7.2; PB—NaCl) with centrifugation. Pellets were resuspended in 1 ml of PB—NaCl.
(§2) For lacritin inhibition assays, 50 ul of bacterial pellets each diluted 1:100 in PB—NaCl were incubated for 1.5 h (37° C.) with 100 ul of lacritin, lacritin truncations, or synthetic peptides at a final concentration of 0.1-6 uM. Mixtures were diluted 1:10 in PB—NaCl before plating 100 ul in quadruplicate on LB agar plates for overnight growth at 37° C. Colonies were manually counted. In other experiments, mid-log E. coli was treated at 37° C. for 0, 1, 2, or 3 h with 2 uM lacritin or lacritin truncations or with ampicillin (5 uM) or tetracycline (2 uM). After each treatment, 100 ul was centrifuged, resuspended in 1 ml of PB—NaCl, and plated (100 ul) onto LB agar for overnight growth (37° C.) and colony counting.

E. coli = experiment: Lacritin inhibition (colony count) assay, E. coli; type: cell-based; conditions: dose response studies; read-out: Half-maximal inhibition
Description: as §1, §2

P. aeruginosa = experiment: Lacritin inhibition (colony count) assay, P. aeruginosa; type: cell-based; conditions: dose response studies; read-out: Half-maximal inhibition
Description: as §1, §2

HCE-T cells [4] = experiment: FOXO3 translocation assay in IFNG/TNF stressed HCE-T cells; type: cell-based, human; conditions: 10 nM, interferon-γ and TNF stressed HCE-T cells
Description: For FOXO3 translocation assays, HCE-T cells were grown in triplicate to subconfluence (˜50%) on coverslips in α-MEM (5.54 mm glucose), sensitized overnight in IFNG (100 units/ml; Roche Applied Science), and treated for 15 min with normal or dry eye tears diluted 1:100 in α-MEM together with TNF (50 ng/ml; PeproTech, Rocky Hill, N.J.) without or with 10 nm lacritin or C-25. Cells were washed, fixed with 4% paraformaldehyde, and immunostained for FOXO3 (1:200; Millipore, Billerica, Mass.) followed by goat anti-rabbit secondary antibody and visualization on a Zeiss LSM 700 microscope.

syndecan-1 = target: T1, syndecan-1 (Homo sapiens, UniProt P18827, L136Q); experiment: Binding to syndecan-1
T1 sequence (P18827 23-310 L136Q): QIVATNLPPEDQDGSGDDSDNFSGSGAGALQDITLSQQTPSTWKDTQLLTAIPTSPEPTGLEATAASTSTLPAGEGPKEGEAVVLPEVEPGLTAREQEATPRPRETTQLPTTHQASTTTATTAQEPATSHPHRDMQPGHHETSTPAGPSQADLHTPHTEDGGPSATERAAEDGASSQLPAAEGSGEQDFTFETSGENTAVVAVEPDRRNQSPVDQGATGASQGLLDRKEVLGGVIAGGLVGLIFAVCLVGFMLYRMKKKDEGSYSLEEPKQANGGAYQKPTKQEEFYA

[5] = Phase behavior and nanoparticle formation (optical density, DLS, TEM); type: physicochemical; conditions: optical density
Description: The phase diagram for LSI fusion protein was characterized by optical density change at 350 nm as a function of solution temperature using a DU800 UV-Vis Spectrophotometer (Beckman Coulter, Brea, Calif.). Tt was defined at the point of the maximum first derivative. Self-assembly of nanoparticles was measured using dynamic light scattering (DLS) using a DynaPro-LSR Plate Reader (Wyatt Technology, Santa Barbara, Calif.). Light scattering data were collected at regular temperature intervals (1° C.) as solutions were heated from 5 to 50° C. The results were analyzed using a Rayleigh sphere model and fitted into a cumulant algorithm based on the sum-of-squares value.
The TEM imaging was carried out on a FEI Tecnai 12 TWIN microscope (Hillsboro, Oreg.) at 100 kV. Briefly, a 100 uM solution (5 uL) was initially deposited on a copper grid with carbon film (CF400-Cu, Election Microscopy Sciences, Hatfield, Pa.). After removing the excess amount of solution with filter paper, the samples were negatively stained with 2% uranyl acetate, followed by removing excess uranyl acetate after 30 s. b The samples were then dried under room temperature for at least 3 h before use in imaging.

## Ac-KQFIENGSEFAQKLLKKFSLLKPWA (N-terminus assumed) [LACRIPEP]
[1]
  Time stable in human tears (immunoblot): at least 16 hr

## CN1CC[C@]2(CCN3CCc4c(oc5ccccc45)[C@@H]3C2)N(C)C1=O [MK912]
HCE-T cells [2]
  Effect on lacritin stimulated FOXO3 phosphorylation: inhibit
HCE-T cells [2]; HCE-T cells
  Effect on lacritin accelerated autophagy: inhibits

## Cc1cc(=O)oc2cc(O[C@@H]3OC[C@@H](O)[C@H](O)[C@H]3O)ccc12 [xyloside, 4-methylumbelliferyl-β-d-xylopyranoside]
HCE-T cells [2]
  Effect on lacritin stimulated FOXO3 phosphorylation: inhibit
HCE-T cells [3]; cells cultured overnight in xyloside
  Effect on lacritin cytoprotective activity: completely abrogated

## Ac-KQFIENGSEFAQKLLKKFS-NH2 [N-94/C-6, KQFIENGSEFAQKLLKKFS]
[1]
  Epitopes by immunoblotting after incubation in tears: loses epitopes
  Stability relative to LACRIPEP: not as stable
bacteria
  Bactericidal activity of synthetic peptides: slightly so
bacteria; listed as SEQ ID NO: 5
  Bactericidal activity of synthetic peptides: substantially reduced the bactericidal activity
HCE-T cells [3]; generated synthetically
  Activity of synthetic peptide relative to lacritin: as potent as lacritin

## AKAGKGMHGGVPGG (listed as Homo sapiens) [N-80/C-25]
bacteria
  Colonies with synthetic peptides: colonies were abundant

## FAQKLLKKFSLLKPWA [N-104]
E. coli
  IC50: ~1000 nM
P. aeruginosa
  IC50: 1000 to 1500 nM
bacteria
  Bactericidal activity of synthetic peptides: fully active

## LKSIVEKSILLTEQALAKAGKGMH (listed as Homo sapiens) [N-64/C-31]
bacteria
  Colonies with synthetic peptides: colonies were abundant

B1: Cross-linked lacritin: lacritin monomer cross-linked into inactive multimers by tissue transglutaminase (protein)
chain: EDASSDSTGADPAQEAGTSKPNEEISGPAEPASPPETTTTAQETSAAAVQGTAKVTSSRQELNPLKSIVEKSILLTEQALAKAGKGMHGGVPGGKQFIENGSEFAQKLLKKFSLLKPWA
HCE-T cells [4]
  FOXO3 cytoplasmic staining (pro-survival activity): less active
HCE-T cells [4]; listed as tissue transglutaminase polymerized lacritin
  FOXO3 cytoplasmic staining (pro-survival activity): inactive
syndecan-1
  Binding to syndecan-1: substantially less

B2: F104S: lacritin point mutant (protein, UniProt Q9GZZ8 20-138, looked up, variant F104S)
Extracellular glycoprotein …: B1 chain with F104S
HCE-T cells [3]
  Cytoprotective activity of lacritin truncation and point mutants: significantly less active

B3: L108S/L109S/F112S: lacritin triple point mutant (protein, UniProt Q9GZZ8 20-138, looked up, variant L108S L109S F112S)
Extracellular glycoprotein …: B1 chain with L108S, L109S, F112S
HCE-T cells [3]
  Cytoprotective activity of lacritin truncation and point mutants: significantly less active

B4: F112S: lacritin point mutant (protein, UniProt Q9GZZ8 20-138, looked up, variant F112S)
Extracellular glycoprotein …: B1 chain with F112S
HCE-T cells [3]
  Cytoprotective activity of lacritin truncation and point mutants: significantly less active

B5: V69S: lacritin point mutant (protein, UniProt Q9GZZ8 20-138, looked up, variant V69S)
Extracellular glycoprotein …: B1 chain with V69S
HCE-T cells [3]
  Cytoprotective activity of lacritin truncation and point mutants: unaffected

B6: I73S: lacritin point mutant (protein, UniProt Q9GZZ8 20-138, looked up, variant I73S)
Extracellular glycoprotein …: B1 chain with I73S
HCE-T cells [3]
  Cytoprotective activity of lacritin truncation and point mutants: unaffected

B7: L65S: lacritin point mutant (protein, UniProt Q9GZZ8 20-138, looked up, variant L65S)
Extracellular glycoprotein …: B1 chain with L65S
HCE-T cells [3]
  Cytoprotective activity of lacritin truncation and point mutants: unaffected

B8: I98S: lacritin point mutant (protein, UniProt Q9GZZ8 20-138, looked up, variant I98S)
Extracellular glycoprotein …: B1 chain with I98S
HCE-T cells [3]
  Cytoprotective activity of lacritin truncation and point mutants: significantly less active

B9: LS96: lacritin fused to soluble ELP (VPGSG)96; thermally nonresponsive control (protein)
chain: GEDASSDSTGADPAQEAGTSKPNEEISGPAEPASPPETTTTAQETSAAAVQGTAKVTSSRQELNPLKSIVEKSILLTEQALAKAGKGMHGGVPGGKQFIENGSEFAQKLLKKFSLLKPWAGLVPRGSGVPGSGY
modifications: ELP lacritin fusion construct; (129)..(133) the sequence VPGSG is directly repeated 96 times
notes: lacritin fused to soluble ELP (VPGSG)96; thermally nonresponsive control
[5]
  Phase transitions in phosphate buffered saline: does not display any observable phase transitions
